According to patent US20240366539A1, “METHODS FOR TREATING AUTISM SPECTRUM DISORDERS” (INSTITUT NATIONAL DE LA SANTÉ ET DE LA RECHERCHE MÉDICALE, priority 2021, published 2024):

Legend:
Oprm1^−/− mice = test: Three-chamber social preference test; type: in vivo, mouse
Description: (§1) Mice were treated with vehicle (NaCl 0.9%; ip, 10 or 20 ml/kg), NaBr (Sigma-Aldrich, Saint-Quentin Fallavier, France) administered either chronically (once a day, 10, 30, 70, 125, 250 and 500 mg/kg; i.p. or per os, in a volume of 20 ml/kg—except for combination with VU0155041: […]) or acutely (250 mg/kg, 20 ml/kg), KBr (Sigma-Aldrich, Saint-Quentin Fallavier, France; 145 mg/kg; i.p., 20 ml/kg), bumetanide (R&D systems, Minneapolis, USA, 0.5 and 2 mg/kg; i.p., 20 ml/kg) or VU0155041 (Cayman Chemicals, Ann Arbor, USA, once a day, i.p., 1 mg/kg, 10 ml/kg). […] When treatment was given chronically, behavioral testing started 8 days after beginning of daily administration. Treatment was maintained for 8 to 18 consecutive days (see timelines in FIGS. 1 and 4), allowing thorough behavioral phenotyping. On testing days, or when treatment was given acutely, drugs (or vehicle) were administered 30 min before behavioral assays.
Three-chamber social preference test. The test apparatus consisted of a transparent acrylic box (exterior walls blinded with black plastic film); partitions divided the box into three equal chambers (40×20×22.5 cm). Two sliding doors (8×5 cm) allowed transitions between chambers. Cylindrical wire cages (18×9 cm, 0.5 cm diameter-rods spaced 1 cm apart) were used to contain the mouse interactor and object (soft-toy mouse). The test was performed in low-light conditions (15 lx) to minor anxiety. Stimulus wild-type mice were habituated to confinement in wire cages for 2 days before the test (20 min/day). On testing day, the experimental animal was introduced to the middle chamber and allowed to explore the whole apparatus for a 10-min habituation phase (wire cages empty) after the sliding doors were raised. The experimental mouse was then confined back in the middle-chamber while the experimenter introduced an unfamiliar wild type age and sex-matched animal into a wire cage in one of the side-chambers and a soft toy mouse (8×10 cm) in the second wire cage as a control for novelty. Then the experimental mouse was allowed to explore the apparatus for a 10-min interaction phase. The time spent in each chamber, the time spent in nose contact with each wire cage (empty: habituation; containing a mouse or a toy: interaction), as well as the number of these nose contacts were scored a posteriori on video recordings using an ethological keyboard (Labwatcher®, View Point, Lyon, France) by trained experimenters. […] The relative position of stimulus mice (versus toy) was counterbalanced between groups.

[1] = tested on: gene expression in Oprm1 null mice (NAc, CPu, VP/Tu, MeA, VTA/SNc); test: Real-time quantitative PCR of brain reward/social circuit regions; type: in vivo, mouse
Description: Brains were removed and placed into a brain matrix (ASI Instruments, Warren, MI, USA). Nucleus accumbens (NAc), caudate putamen (CPu), ventral pallidum/olfactory tubercle (VP/Tu), medial nucleus of the amygdala (MeA) and ventral tegmental area/substancia nigra pars compacta (VTA/SNc) were punched out/dissected from 1 mm-thick slices (data not shown). Tissues were immediately frozen on dry ice and kept at −80° C. until use. For each structure of interest, genotype and condition, samples were processed individually (n=8). RNA was extracted and purified using the Direct-Zol RNA MiniPrep kit (Zymo research, Irvine, USA). cDNA was synthetized using the ProtoScript II Reverse Transcriptase kit (New England BioLabs, Évry-Courcouronnes, France). qRT-PCR was performed in quadruplets on a CFX384 Touch Real-Time PCR Detection System (Biorad, Marnes-la-Coquette, France) using iQ-SYBR Green supermix (Bio-Rad) kit with 0.25 μl cDNA in a 12 μl final volume in Hard-Shell Thin-Wall 384-Well Skirted PCR Plates (Bio-rad). Gene-specific primers were designed using Primer3 software to obtain a 100- to 150-bp product. Relative expression ratios were normalized to the level of actin and the 2^−ΔΔCt method was applied to evaluate differential expression level. Gene expression values differing of the mean by more than two standard deviations were considered as outliers and excluded from further calculations.
To shed light on the molecular mechanism involved in beneficial effects of chronic sodium bromide administration, we assessed the effects of a 2-week NaBr treatment on gene expression in Oprm1 null mice across five regions of the brain reward/social circuit: NAc, CPu, VP/Tu, MeA and VTA/SNc. Mice underwent a first session of social interaction after one week under treatment and a second 45 min before sacrifice for qRT-PCR experiment (data not shown). We focused primarily on genes coding for chloride transporters (Slc12a2 [NKCC1], Slc12a4, 5, 6, 7 [KCC1,2,3,4, respectively], ClCa1), GABAA receptor subunits (Gabra1, 2, 3, 4, 5, Gabrb1, 2) and glutamate receptors (Grm2, 4, 5) and subunits (Grin2a, 2b). In addition, we evaluated the expression of marker genes of neuronal expression and plasticity (Fos, Bdnf), social behavior (Oxt) and striatal projection neurons (SPNs; Crh, Drd1a, Drd2, Htr6, Pdyn, Penk).

[2] = stated in conclusion, no data; cited from earlier work
Shank3^Δex13-16−/− mice = test: Motor stereotypies; type: in vivo, mouse; settings: Shank3Δex13-16−/− mice; chronic NaBr 250 mg/kg once daily
Description: as §1
(§2) Motor stereotypies. To detect motor stereotypies in mutant versus wild-type animals, mice were individually placed in clear standard home cages (21×11×17 cm) filled with 3-cm deep fresh sawdust for 10 min (64). Light intensity was set at 30 lux. Trained experimenters scored numbers of head shakes, as well as rearing, burying, grooming, circling episodes and total time spent burying by direct observation.
(§3) To this purpose, we evaluated the effects of chronic NaBr administration at the dose of 250 mg/kg on autism-sensitive behaviors in these lines (FIG. 3A).

Fmr1^−/− mice = test: Motor stereotypies; type: in vivo, mouse; settings: chronic NaBr 250 mg/kg once daily
Description: as §1, §2, §3

rat mGlu4 receptor = target: T1, rat mGlu4 receptor (Rattus norvegicus, UniProt P31423); test: IP1 accumulation assay, mGlu4 signaling under glutamate stimulation; type: cell-based
T1 construct: expressed in transfected cells
Description: Human embryonic kidney (HEK) 293 cells were transiently transfected with rat mGlu4 receptor by electroporation together with a chimeric Gi/Gq protein to allow phospholipase activation and EAAC1, a glutamate transporter, to avoid influence of extracellular glutamate. […] 96-well plate (Greiner Bio-One) at the density of 100,000 cells per well and for IPOne assay in a PLO-coated black 96-well plate (Greiner Bio-One) at the density of 50,000 cells per well. Cells were cultured in DMEM (Gibco™, Life Technologies), supplemented with 10% fetal bovine serum. Medium was changed by GlutaMAX (Gibco™, Life Technologies) to reduce extracellular glutamate concentration 3 h before experiment. […]
IP1 accumulation assay: Inositol monophosphate accumulation was determined using the IP-One HTRF (Homogenous Time Resolved Fluorescence) kit (Cisbio Bioassays, Perkin Elmer, Codolet, France) according to the manufacturer's recommendations (72). […]
Data were analyzed using Prism 6 software (GraphPad Software, San Diego, CA, USA). […] Statistical differences between pEC50, ΔpEC50 and Emax were determined using a one-way analysis of variance followed by Tukey's post-test.
We measured mGlu4 signaling under glutamate stimulation in HEK293T cells transiently expressing mGlu4 receptors and Gαqi9, a Gi/Gq chimeric G-protein (57) that allows mGlu4 to activate the phosphoinositide pathway.

[3] = chronic NaBr (since lowest dose, 10 mg/kg) or bumetanide 0.5 and 2 mg/kg

T1 sequence (P31423 33-912): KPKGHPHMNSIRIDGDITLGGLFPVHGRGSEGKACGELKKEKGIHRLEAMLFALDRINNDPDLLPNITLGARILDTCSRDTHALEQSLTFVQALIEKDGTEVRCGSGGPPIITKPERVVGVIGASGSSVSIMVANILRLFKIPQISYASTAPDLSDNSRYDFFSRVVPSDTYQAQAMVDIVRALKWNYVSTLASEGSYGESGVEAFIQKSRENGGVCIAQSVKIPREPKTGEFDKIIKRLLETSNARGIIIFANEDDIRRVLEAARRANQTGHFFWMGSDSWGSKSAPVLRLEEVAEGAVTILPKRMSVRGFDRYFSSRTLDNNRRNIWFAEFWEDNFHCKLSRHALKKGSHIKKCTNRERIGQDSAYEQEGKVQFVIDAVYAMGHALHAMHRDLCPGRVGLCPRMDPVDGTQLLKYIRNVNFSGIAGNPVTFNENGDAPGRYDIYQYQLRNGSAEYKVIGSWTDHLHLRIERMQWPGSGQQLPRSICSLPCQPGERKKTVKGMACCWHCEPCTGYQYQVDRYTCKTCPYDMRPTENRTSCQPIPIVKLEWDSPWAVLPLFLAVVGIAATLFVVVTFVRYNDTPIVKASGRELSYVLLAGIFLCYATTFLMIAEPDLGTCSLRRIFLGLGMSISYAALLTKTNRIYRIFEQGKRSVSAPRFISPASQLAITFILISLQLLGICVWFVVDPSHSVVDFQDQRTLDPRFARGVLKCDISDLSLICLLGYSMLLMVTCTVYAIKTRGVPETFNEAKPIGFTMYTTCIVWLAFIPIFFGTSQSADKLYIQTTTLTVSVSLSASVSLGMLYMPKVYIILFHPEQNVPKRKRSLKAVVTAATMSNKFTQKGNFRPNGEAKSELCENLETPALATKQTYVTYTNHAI

[Br-].[Na+] [NaBr, sodium bromide]
frequency of nose contacts with the mouse versus the toy (Oprm1^−/− mice; NaBr 70 mg/kg or VU0155041 1 mg/kg, once daily, chronic): sufficient to restore more frequent nose contacts with the mouse versus the toy | duration of nose contacts with the mouse versus the toy (Oprm1^−/− mice; NaBr 70 mg/kg, VU0155041 1 mg/kg, alone or combined, once daily, chronic): fully restored longer nose contacts with the mouse | social preference (Oprm1^−/− mice; chronic NaBr 10-500 mg/kg once daily): completely restored social preference in mutant mice | social preference ratio (Oprm1^−/− mice; chronic NaBr 10-500 mg/kg or bumetanide 0.5 and 2 mg/kg): normalization of their preference ratio from 10 mg/kg NaBr and over | duration of nose contacts with the mouse versus the toy (Oprm1^−/− mice; [3]): longer | number of nose contacts with the mouse versus the toy (Oprm1^−/− mice; [3]): more frequent | ClCa1 transcription ([1]; CPu, mice of both genotypes, 2-week NaBr): increased ClCa1 transcription in mice of both genotypes | Oxt expression ([1]; MeA and VTA/SNc, 2-week NaBr): induced Oxt expression in the MeA and VTA/SNc | expression of chloride transporter genes ([1]; Oprm1−/− mice, 2-week NaBr treatment, qRT-PCR): increased the expression of all tested chloride transporters in Oprm1^−/− mice | expression of Gabra3, Gabra4, Gabra5, Gabrg1 and Gabrb2 ([1]; Oprm1−/− mice, CPu, 2-week NaBr): consistently upregulated the expression of Gabra3, Gabra4, Gabra5, Gabrg1 and Gabrb2 in the CPu of mutant mice | Oxt mRNA levels ([1]; Oprm1−/− mice, NAc (former) and VP/Tu (latter), 2-week NaBr): normalized by NaBr in the former and partially in the latter | Gabra2 expression ([1]; Oprm1−/− mice, NAc and CPu (left high in VP/Tu and MeA), 2-week NaBr): stimulated the expression of Gabra2 | Slc12a5 expression ([1]; Oprm1−/− mice, NAc, CPu and MeA, 2-week NaBr): up-regulated the expression of Slc12a5 and Slc12a7 | Slc12a7 expression ([1]; Oprm1−/− mice, NAc, CPu, MeA and VP/Tu, 2-week NaBr): up-regulated the expression of Slc12a5 and Slc12a7 | Fos expression ([1]; Oprm1−/− mice, NAc, VP/Tu, CPu, 2-week NaBr): down-regulated the expression of the early gene Fos in the NAc and VP/Tu and maintained it low in the CPu | ClCa1 mRNA levels ([1]; Oprm1−/− mice, NAc, VP/Tu, MeA, VTA/SNc, 2-week NaBr): normalized by NaBr treatment in the NAc, increased in the VP/Tu and maintained high in the MeA and VTA/SNc | Slc12a2 expression ([1]; Oprm1−/− mice, decreased in all brain regions but the VP/Tu before treatment, 2-week NaBr): normalized under bromide treatment | Grm4 expression ([1]; all brain regions but the VTA/SNc of Oprm1−/− mice, and NAc of wild-type controls, 2-week NaBr): upregulated the expression of Grm4 | brain penetrance [2]: excellent | oral bioavailability [2]: excellent oral bioavailability | circling episodes (Shank3^Δex13-16−/− mice): normalized all these parameters to WT levels | head shakes (Shank3^Δex13-16−/− mice): normalized all these parameters to WT levels | spontaneous grooming (Shank3^Δex13-16−/− mice): normalized all these parameters to WT levels | circling episodes (Fmr1^−/− mice): normalized all these parameters to WT levels | head shakes (Fmr1^−/− mice): normalized all these parameters to WT levels | increase in glutamate efficacy (Emax, maximal IP1 production) (rat mGlu4 receptor; HEK293 cells, mGlu4 + Gαqi9, bromide): 60±10% | ΔpEC50 of glutamate between physiological Cl− concentration and after addition of Br− (rat mGlu4 receptor; addition of Br− (so in the source)): 0.42±0.03
